Results from patent publication US10160755B2 (Plexxikon Inc., priority 2015, dated 2018).

Columns and labels:
c-Kit = c-Kit (Homo sapiens, UniProt P10721); assay: c-Kit biochemical assay (per US 2007/0032519)
Outline: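 Biochemical kinase inhibition run per US 2007/0032519; values reported as binned IC50 ranges (0.0001–1 μM, 1–10 μM, 10–200 μM).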

FLT3-D835Y = target: T1, FLT3-D835Y (Homo sapiens, UniProt P36888, D835Y); assay: FLT3-D835Y biochemical kinase assay (AlphaScreen)
T1 construct: purchased Invitrogen PV3967
T1 sequence (P36888 27-993 D835Y): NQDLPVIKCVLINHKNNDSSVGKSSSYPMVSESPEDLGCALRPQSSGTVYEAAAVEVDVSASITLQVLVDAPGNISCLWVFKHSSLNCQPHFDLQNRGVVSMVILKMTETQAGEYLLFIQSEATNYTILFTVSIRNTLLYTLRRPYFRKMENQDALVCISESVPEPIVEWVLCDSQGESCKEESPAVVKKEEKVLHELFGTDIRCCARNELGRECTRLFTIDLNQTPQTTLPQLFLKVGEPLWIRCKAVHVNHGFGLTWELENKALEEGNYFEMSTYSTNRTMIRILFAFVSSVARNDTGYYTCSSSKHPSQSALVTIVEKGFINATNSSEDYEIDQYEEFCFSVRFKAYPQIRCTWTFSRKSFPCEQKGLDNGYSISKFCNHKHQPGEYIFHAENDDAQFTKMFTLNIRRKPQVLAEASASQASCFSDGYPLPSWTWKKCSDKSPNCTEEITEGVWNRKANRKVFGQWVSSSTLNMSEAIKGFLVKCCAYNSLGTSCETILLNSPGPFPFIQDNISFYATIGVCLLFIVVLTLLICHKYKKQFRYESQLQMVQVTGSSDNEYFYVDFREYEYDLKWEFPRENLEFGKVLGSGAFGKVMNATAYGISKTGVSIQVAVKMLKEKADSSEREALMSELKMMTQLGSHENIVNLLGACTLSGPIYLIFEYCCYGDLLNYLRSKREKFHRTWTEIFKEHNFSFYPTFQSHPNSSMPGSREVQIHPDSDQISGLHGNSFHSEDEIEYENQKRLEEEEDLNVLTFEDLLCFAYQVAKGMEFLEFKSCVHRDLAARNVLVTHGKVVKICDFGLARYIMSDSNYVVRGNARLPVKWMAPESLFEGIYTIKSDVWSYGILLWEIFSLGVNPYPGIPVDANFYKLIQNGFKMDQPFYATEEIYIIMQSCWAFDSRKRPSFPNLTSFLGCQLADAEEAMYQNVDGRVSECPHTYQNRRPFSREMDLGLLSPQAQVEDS
Outline: (§1)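 First, recombinant FLT3 variant phosphorylates a biotinylated poly(Glu4-Tyr) peptide (30 nM) with ATP at 10 μM (D835Y) or 100 μM (ITD). Streptavidin donor beads are then added for 20 min at room temperature, followed by anti-phosphotyrosine PY20 acceptor beads for 60 min. Signal at 580 nm gives IC50.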

FLT3-ITD = target: T2, FLT3-ITD (Homo sapiens, UniProt P36888); assay: FLT3-ITD biochemical kinase assay (AlphaScreen)
T2 construct: FLT3-ITD; Invitrogen #PV6190
T2 sequence (P36888 1-993): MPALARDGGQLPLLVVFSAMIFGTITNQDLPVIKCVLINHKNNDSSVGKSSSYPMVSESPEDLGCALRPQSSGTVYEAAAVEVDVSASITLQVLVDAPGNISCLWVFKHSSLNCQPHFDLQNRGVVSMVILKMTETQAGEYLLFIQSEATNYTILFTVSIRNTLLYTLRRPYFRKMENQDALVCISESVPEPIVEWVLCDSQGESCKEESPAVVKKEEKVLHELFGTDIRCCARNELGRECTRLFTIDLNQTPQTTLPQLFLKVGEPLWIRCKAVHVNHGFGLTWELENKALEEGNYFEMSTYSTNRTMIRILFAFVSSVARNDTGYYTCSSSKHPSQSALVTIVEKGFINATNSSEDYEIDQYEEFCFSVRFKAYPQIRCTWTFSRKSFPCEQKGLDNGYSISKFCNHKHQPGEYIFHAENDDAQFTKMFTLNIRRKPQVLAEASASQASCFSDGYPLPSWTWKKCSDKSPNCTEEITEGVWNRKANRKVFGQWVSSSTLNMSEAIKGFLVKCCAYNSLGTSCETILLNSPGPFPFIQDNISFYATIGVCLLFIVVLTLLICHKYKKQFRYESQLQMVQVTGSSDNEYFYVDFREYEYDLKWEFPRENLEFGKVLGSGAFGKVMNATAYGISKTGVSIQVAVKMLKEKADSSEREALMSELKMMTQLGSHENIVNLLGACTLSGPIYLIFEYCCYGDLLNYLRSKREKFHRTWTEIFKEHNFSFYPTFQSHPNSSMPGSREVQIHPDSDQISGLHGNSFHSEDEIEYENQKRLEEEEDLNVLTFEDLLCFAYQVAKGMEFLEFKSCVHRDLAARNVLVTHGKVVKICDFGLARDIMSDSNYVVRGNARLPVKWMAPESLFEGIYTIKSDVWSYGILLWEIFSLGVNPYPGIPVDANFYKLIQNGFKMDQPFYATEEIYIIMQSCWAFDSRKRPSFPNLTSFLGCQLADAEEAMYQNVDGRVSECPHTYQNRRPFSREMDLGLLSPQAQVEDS
Outline: as §1

Sequence of c-Kit (P10721 26-976): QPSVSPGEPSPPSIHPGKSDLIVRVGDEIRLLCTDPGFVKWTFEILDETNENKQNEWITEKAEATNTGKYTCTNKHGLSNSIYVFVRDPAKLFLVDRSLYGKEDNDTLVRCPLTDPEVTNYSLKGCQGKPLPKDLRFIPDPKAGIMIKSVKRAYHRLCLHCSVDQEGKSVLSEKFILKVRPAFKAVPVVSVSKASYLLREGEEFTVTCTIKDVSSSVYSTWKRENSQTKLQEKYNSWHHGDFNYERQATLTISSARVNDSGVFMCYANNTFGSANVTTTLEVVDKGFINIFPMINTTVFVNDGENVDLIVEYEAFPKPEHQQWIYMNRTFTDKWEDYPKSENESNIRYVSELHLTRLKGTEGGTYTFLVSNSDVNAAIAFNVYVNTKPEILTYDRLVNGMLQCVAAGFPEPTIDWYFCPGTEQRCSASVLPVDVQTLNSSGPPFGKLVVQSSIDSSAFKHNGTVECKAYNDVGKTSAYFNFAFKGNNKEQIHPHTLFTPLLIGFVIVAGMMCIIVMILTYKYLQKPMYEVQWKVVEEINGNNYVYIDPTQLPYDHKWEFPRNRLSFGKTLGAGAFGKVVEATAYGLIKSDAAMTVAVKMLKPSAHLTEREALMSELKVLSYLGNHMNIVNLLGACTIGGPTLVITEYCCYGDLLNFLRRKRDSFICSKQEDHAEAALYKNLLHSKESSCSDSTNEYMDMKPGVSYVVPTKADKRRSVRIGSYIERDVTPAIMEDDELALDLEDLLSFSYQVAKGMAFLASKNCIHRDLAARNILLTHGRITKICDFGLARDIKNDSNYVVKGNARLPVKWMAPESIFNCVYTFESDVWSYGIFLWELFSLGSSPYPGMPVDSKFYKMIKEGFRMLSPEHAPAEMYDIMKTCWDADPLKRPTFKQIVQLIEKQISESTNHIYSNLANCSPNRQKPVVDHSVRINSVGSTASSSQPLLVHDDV

| Compound | IC50 (c-Kit) [µM] | IC50 (FLT3-D835Y) [µM] | IC50 (FLT3-ITD) [µM] |
| --- | --- | --- | --- |
| CS(=O)(=O)Nc1cccc(-c2cnc3[nH]cc(-c4ccc5c(c4)NCCO5)c3n2)c1 [P-085, N-[3-[7-(3,4-dihydro-2H-1,4-benzoxazin-6-yl)-5H-pyrrolo[2,3-b]pyrazin-2-yl]phenyl]methanesulfonamide] | 1 to 10 | 0.0001 to 1 | 0.0001 to 1 |
| CC(C)N1CCOc2ccc(-c3c[nH]c4ncc(-c5cccc(NS(C)(=O)=O)c5)nc34)cc21 [P-086, N-[3-[7-(4-isopropyl-2,3-dihydro-1,4-benzoxazin-6-yl)-5H-pyrrolo[2,3-b]pyrazin-2-yl]phenyl]methanesulfonamide] | 10 to 200 | 0.0001 to 1 | 0.0001 to 1 |
| CC(C)(C)n1cnc2ccc(-c3c[nH]c4ncc(C5=CCN(C(=O)C6CC6)C5)cc34)cc21 [P-134, [3-[3-(3-tert-butylbenzimidazol-5-yl)-1H-pyrrolo[2,3-b]pyridin-5-yl]-2,5-dihydropyrrol-1-yl]-cyclopropyl-methanone] | 10 to 200 | 0.0001 to 1 | 0.0001 to 1 |
| O=C(C1CC1)N1CC=C(c2cnc3[nH]cc(-c4ccc5ncn(CC(F)(F)F)c5c4)c3n2)C1 [P-125, cyclopropyl-[3-[7-[3-(2,2,2-trifluoroethyl)benzimidazol-5-yl]-5H-pyrrolo[2,3-b]pyrazin-2-yl]-2,5-dihydropyrrol-1-yl]methanone] | 1 to 10 | 0.0001 to 1 | 0.0001 to 1 |
| CC(C)n1cc(-c2cnc3[nH]cc(-c4ccc5ncn(C(C)(C)C)c5c4)c3n2)cn1 [P-382, 7-(3-tert-butylbenzimidazol-5-yl)-2-(1-isopropylpyrazol-4-yl)-5H-pyrrolo[2,3-b]pyrazine] | 0.0001 to 1 | 0.0001 to 1 | 0.0001 to 1 |
| O=C(C1CC1)N1CCC=C(c2cnc3[nH]cc(-c4ccc5[nH]cnc5c4)c3c2)C1 [P-033, [5-[3-(1H-benzimidazol-5-yl)-1H-pyrrolo[2,3-b]pyridin-5-yl]-3,6-dihydro-2H-pyridin-1-yl]-cyclopropyl-methanone] | 10 to 200 | 1 to 10 | 0.0001 to 1 |
| CS(=O)(=O)Nc1cccc(-c2cnc3[nH]cc(-c4ccc5c(c4)N(CC4CC4)CCO5)c3n2)c1 [P-081, N-[3-[7-[4-(cyclopropylmethyl)-2,3-dihydro-1,4-benzoxazin-6-yl]-5H-pyrrolo[2,3-b]pyrazin-2-yl]phenyl]methanesulfonamide] | 10 to 200 | 0.0001 to 1 | 0.0001 to 1 |
| CS(=O)(=O)Nc1cccc(-c2cnc3[nH]cc(-c4ccc5c(c4)OCCO5)c3n2)c1 [P-059, N-[3-[7-(2,3-dihydro-1,4-benzodioxin-6-yl)-5H-pyrrolo[2,3-b]pyrazin-2-yl]phenyl]methanesulfonamide] | 10 to 200 | 0.0001 to 1 | 0.0001 to 1 |
| CC(C)(C)n1cnc2ccc(-c3c[nH]c4ncc(C5=CCN(C(=O)C6CC6)C5)nc34)cc21 [P-127, [3-[7-(3-tert-butylbenzimidazol-5-yl)-5H-pyrrolo[2,3-b]pyrazin-2-yl]-2,5-dihydropyrrol-1-yl]-cyclopropyl-methanone] | 1 to 10 | 0.0001 to 1 | 0.0001 to 1 |
| CS(=O)(=O)Nc1cccc(-c2cnc3[nH]cc(-c4ccc5[nH]cnc5c4)c3n2)c1 [P-011, N-[3-[7-(1H-benzimidazol-5-yl)-5H-pyrrolo[2,3-b]pyrazin-2-yl]phenyl]methanesulfonamide] | 1 to 10 | 0.0001 to 1 | 0.0001 to 1 |

Other lines, results leading:

| IC50 (c-Kit) [µM] | IC50 (FLT3-D835Y) [µM] | IC50 (FLT3-ITD) [µM] | Compound |
| --- | --- | --- | --- |
| 10 to 200 | 10 to 200 | 1 to 10 | COc1cnc2[nH]cc(-c3ccc4occc4c3)c2c1 [P-036, 3-(benzofuran-5-yl)-5-methoxy-1H-pyrrolo[2,3-b]pyridine] |
| 10 to 200 | 1 to 10 | 1 to 10 | COc1ccc2c(-c3ccc4ncn(C)c4c3)c[nH]c2n1 [P-034, 6-methoxy-3-(3-methylbenzimidazol-5-yl)-1H-pyrrolo[2,3-b]pyridine] |
| 10 to 200 | 0.0001 to 1 | 0.0001 to 1 | CCCn1cnc2cc(-c3c[nH]c4ncc(OC)cc34)ccc21 [P-056, 5-methoxy-3-(1-propylbenzimidazol-5-yl)-1H-pyrrolo[2,3-b]pyridine] |
| 10 to 200 | 1 to 10 | 1 to 10 | Fc1cnc2[nH]cc(-c3ccc4nc[nH]c4c3)c2c1 [P-022, 3-(3H-benzimidazol-5-yl)-5-fluoro-1H-pyrrolo[2,3-b]pyridine] |
| 1 to 10 | 0.0001 to 1 | 0.0001 to 1 | CC(=O)Nc1cccc(-c2cnc3[nH]cc(-c4ccc5ncn(C)c5c4)c3c2)c1 [P-116, N-[3-[3-(3-methylbenzimidazol-5-yl)-1H-pyrrolo[2,3-b]pyridin-5-yl]phenyl]acetamide] |
| 1 to 10 | 0.0001 to 1 | 0.0001 to 1 | COc1cnc2[nH]cc(-c3ccc4ncsc4c3)c2c1 [P-029, 6-(5-methoxy-1H-pyrrolo[2,3-b]pyridin-3-yl)-1,3-benzothiazole] |
| 1 to 10 | 0.0001 to 1 | 1 to 10 | c1cnc2[nH]cc(-c3ccc4[nH]cnc4c3)c2c1 [P-004, 3-(1H-benzimidazol-5-yl)-1H-pyrrolo[2,3-b]pyridine] |
| 1 to 10 | 0.0001 to 1 | 0.0001 to 1 | Cn1cnc2ccc(-c3c[nH]c4ncc(-c5cnc(C6CC6)nc5)cc34)cc21 [P-039, 5-(2-cyclopropylpyrimidin-5-yl)-3-(3-methylbenzimidazol-5-yl)-1H-pyrrolo[2,3-b]pyridine] |
| 1 to 10 | 0.0001 to 1 | 0.0001 to 1 | Cc1cnc2[nH]cc(-c3ccc4ncn(C)c4c3)c2c1 [P-018, 1-methyl-6-(5-methyl-1H-pyrrolo[2,3-b]pyridin-3-yl)benzimidazole] |
| 1 to 10 | 0.0001 to 1 | 0.0001 to 1 | COc1cnc2[nH]cc(-c3ccc4[nH]cnc4c3)c2c1 [P-002, 3-(1H-benzimidazol-5-yl)-5-methoxy-1H-pyrrolo[2,3-b]pyridine] |
| 10 to 200 | 0.0001 to 1 | 0.0001 to 1 | CCn1cnc2ccc(-c3c[nH]c4ncc(OC)cc34)cc21 [P-048, 1-ethyl-6-(5-methoxy-1H-pyrrolo[2,3-b]pyridin-3-yl)benzimidazole] |
| 10 to 200 | 10 to 200 | 0.0001 to 1 | COc1cnc2[nH]cc(-c3cnc4c(c3)ncn4C)c2c1 [P-055, 6-(5-methoxy-1H-pyrrolo[2,3-b]pyridin-3-yl)-3-methyl-imidazo[4,5-b]pyridine] |
| 1 to 10 | 0.0001 to 1 | 0.0001 to 1 | c1cnc2[nH]cc(-c3ccc4ncsc4c3)c2c1 [P-030, 6-(1H-pyrrolo[2,3-b]pyridin-3-yl)-1,3-benzothiazole] |
